4 compounds from patent publication US5919464A, “Treatment of aberrant cellular states with biomodulators” (University of New Mexico, priority 1993, dated 1999) can be followed below.

“Also recorded” adds a separate entry of the source.

Experiment [1] deals with canine glioma cells. Description: canine glioma generation times, Compound IIe'. It is filed as cell-based. As for the experimental part: The cells were harvested every 72 hours after the controls had reached 85% confluency. Generation time (Tg) was determined as the number of: hours required for the cell population to double.
Mean of triplicate determinations. Canine glioma cells were grown under conditions to promote exponential growth characteristics; 2×10^5cells in a T-25 flask. The cells were harvested every 72 hours after the controls had reached approximately 85% confluency. The drug was added at the initiation of culture in DMSO, the control cultures had just DMSO. The drug concentration was adjusted with DMSO so that the final concentration of DMSO was always 0.5%.

In experiment [2] the target is T1, HMGCoA reductase (Rattus norvegicus, UniProt P51639).
T1 sequence (P51639 1-887): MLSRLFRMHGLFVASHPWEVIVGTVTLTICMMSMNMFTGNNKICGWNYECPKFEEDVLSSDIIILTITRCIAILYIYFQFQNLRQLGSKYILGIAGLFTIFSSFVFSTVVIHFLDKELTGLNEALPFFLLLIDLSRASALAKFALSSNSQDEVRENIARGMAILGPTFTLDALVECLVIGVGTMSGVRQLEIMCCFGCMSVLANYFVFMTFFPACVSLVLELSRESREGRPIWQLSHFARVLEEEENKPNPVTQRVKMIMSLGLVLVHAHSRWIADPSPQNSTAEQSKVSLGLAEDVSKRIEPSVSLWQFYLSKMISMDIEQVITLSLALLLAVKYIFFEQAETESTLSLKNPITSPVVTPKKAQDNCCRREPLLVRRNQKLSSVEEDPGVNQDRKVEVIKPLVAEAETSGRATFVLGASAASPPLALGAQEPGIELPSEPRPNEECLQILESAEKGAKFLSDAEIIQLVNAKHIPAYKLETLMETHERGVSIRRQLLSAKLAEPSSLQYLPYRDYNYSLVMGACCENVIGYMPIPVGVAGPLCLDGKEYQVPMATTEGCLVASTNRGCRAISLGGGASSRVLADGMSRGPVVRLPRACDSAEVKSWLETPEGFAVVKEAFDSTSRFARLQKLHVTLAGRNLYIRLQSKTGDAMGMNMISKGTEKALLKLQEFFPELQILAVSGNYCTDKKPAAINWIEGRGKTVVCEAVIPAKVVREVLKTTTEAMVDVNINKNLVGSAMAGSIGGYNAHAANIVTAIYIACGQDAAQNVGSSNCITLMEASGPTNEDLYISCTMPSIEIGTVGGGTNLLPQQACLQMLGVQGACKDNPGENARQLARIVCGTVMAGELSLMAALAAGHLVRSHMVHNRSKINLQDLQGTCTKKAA
Description: inhibition of rat liver HMGCoA reductase activity. It counts as biochemical. Set-up: from tissue; host or cells: rat liver. To be noted: read-out: IC50 HMG-CoA reductase. The source says:
reductase activity; data obtained according to Example IA.

Experiment [3] deals with T1, HMGCoA reductase. Description: HMG-CoA reductase inhibition, ED50. It is filed as in vivo. Also on record: from tissue; host or cells: whole animal (in vivo dose in μg/kg). To be noted: HMG-CoA reductase inhibitor.
The subject of experiment [4] is human colon carcinoma cell line (LS-174). Description: LS-174 generation times, Compound IIe'. It counts as cell-based. As for the experimental part:
The procedure of Example VA, above, was repeated except a human colon carcinoma cell line (LS-174) was used instead of the canine glioma cell line.
Mean of triplicate determinations. LS-174 cells (human colon carcinoma) were grown under conditions to promote exponential growth characteristics; 2×10^5 cells in a T-25 flask. The cells were harvested every 72 hours after the controls had reached approximately 85% confluency. The drug was added at the initiation of culture in DMSO, the control cultures had just DMSO. The drug concentration was adjusted with DMSO so that the final concentration of DMSO was always 0.5%.

For experiment [5], the system named is canine glioma cells. Description: adherence (ADH50%) of canine glioma cells. It counts as cell-based. To be noted: Canis lupus familiaris, Glioma cell. On the procedure:
(§1) Cytotoxicity was determined as a function of simple survival (T50%), adherence (ADH50%) and thymidine incorporation (I50%) of the cells.
(§2) Estimates of the 50% inhibitory concentrations of the various drugs tested on simple survival (T50%) and adherence (ADH50%) for canine glioma cells.

In experiment [6] the test system is human peripheral blood leukocytes (HPBLs). Description: HPBL 3H-thymidine incorporation (proliferation). It is filed as cell-based. Also on record: reference not given here. An excerpt: (§3) C. […] This model is used to correlate the effects of biomodulators on the expression of immune response in vitro. The plaque assay disclosed in this reference is used for the determination of the effect of biomodulators on the specificity, class and subclass of individual clones.
(§4) A. Purification of PWM and separation of the differentiative and proliferative functions Pokeweed Mitogen (PWM) and three of its isomitogens, Pa-1 and Pa-5, which are primarily differentiative in nature, and Pa-2 which is primarily proliferative, were prepared according to the method of Waxdal, supra, except that the iso-mitogens were finally purified by isoelectric focusing.
(In general: Uptake of a labelled nucleoside into DNA is a usual measure of proliferation.)

For experiment [7], the system named is canine glioma cells. Description: cytotoxicity, simple survival (T50%) of canine glioma cells. It counts as cell-based. Conditions: Canis lupus familiaris, Glioma cell, read-out: T 50% (50% inhibitory concentration on simple survival). On the procedure:
as §1, §2

Experiment [8] concerns canine glioma cells. The experiment is described as follows: thymidine incorporation (I50%) of canine glioma cells. It counts as cell-based. Conditions: Canis lupus familiaris, Glioma cell. As for the experimental part: as §1
Estimates of the I50% of the various drugs tested on thymidine incorporation of canine glioma cells in culture.

Experiment [9] relates to canine glioma (CG) specific IgG antibody. Description: CG-specific antibody (IgG) titer in a dog. It counts as in vivo.
For experiment [10], the system named is human peripheral blood leukocytes (HPBLs). The experiment is described as follows: HPBL plaque forming cell (PFC) assay / IgG production in vitro (differentiation). It is filed as cell-based.
Source text: as §3, §4
Human peripheral blood leukocytes were cultured in a standard tissue culture medium. Aliquots of these cultured cells (1,000,000 cells/ml medium) were cultured for 6 hours, and the specified amount of Formula II compound was added; the cells were then cultured for an additional 90 hours. Sheep red blood cells (SRBC) conditioned with class-specific (IpG) goat anti-human antiserum (1:400) for 2 hours; then guinea pig complement (2%) for 2 hours were conjugated to Protein A as described in detail in Radioimmunoimaging and Radioimmunotherapy, Eds.

A further experiment concerns CG tumor. The experiment is described as follows: chromium-release cell-mediated lympholysis vs. CG tumor in a dog. It is filed as in vivo. The source says:
Cellular immune response reflected the results reported in III, 1 above. […] This also is in the absence of CG antigen exposure. […] Thus, both cellular and humoral immunity appear to be modulatable in the absence of antigen by the compounds of the instant invention.

Experiment [11] deals with canine glioma cells. The experiment is described as follows: in vivo inhibition of canine glioma in nude rats, compound IIc'. As for the experimental part: Fifty four nude rats (Harlan) were injected in the right flank with 5×10^6 canine glioma cells. Animals at the time of injection were between 52 and 63 days old and weighed approximately 200 g. The rats were divided into 7 groups, each group having a total number of 7 rats except for the control group, which totalled 12 animals. Compound IIc' was administered to the experimental animals at one of the following doses for each experimental group: 100 μg/kg, 10 μg/kg, 1 μg/kg, 0.1 μg/kg, 0.01 μg/kg and 0.001 μg/kg (phosphate buffer saline, M, W, F, I.P.). The control animals were injected with PBS (phosphate buffered saline) only. The volume of each injection was 100 μl. The injections of drug were simultaneously begun with injection of tumor cells. The animals were injected with the appropriate dosage of drug ([…]) by I.P. injection and tumor length, width and depth were measured using caliphers each Monday, Wednesday and Friday (M, W, F) morning for approximately 9 weeks. Each point on the graphs represents the total of all rats for each group. […] The data were normalized for the greater number of control animals by multiplying the total tumor volume for the control animals by 7/12.

Experiment [12] in a line: biomodulator assay (general). Conditions: in words. An excerpt:
All biomodulators will have at least the following effects, which can be measured as indicated above:
a. Biomodulators cause, at a concentration in the general range of 100 pM-1 μm, the differentiation of lymphocytes. This differentiation can be detected by, for example, the increased production of specific and non-specific antibodies in response to the presence of biomodulator in the culture medium, e.g., according to the HPBL method discussed above in C, or the alteration in the class of antibodies being produced by a cell line, e.g., from IgM to IgG, e.g., according to the method disclosed in the same reference.
b. Biomodulators cause, at a concentration in the general range of 100 pM-1 μm, the alteration of the cell surface oligosaccharide display of IMR-90 cells in culture as discussed in A. above.
Activity in both of these assays is a necessary and sufficient measure of whether or not a given substance is a biomodulator, as defined herein.

A further experiment deals with TNP-Ficoll. Description: in vivo antibody (PFC) response to T-independent antigen TNP-Ficoll. Also on record: species or system mouse. To be noted: in words. On the procedure:
In this case both IgM and IgG hapten specific responses were recorded as well as non-antigen specific plaque responses (Ig-PFC) using a Protein A coated red blood cell target.
The TNP-Ficoll antigen is administered as the SRBC antigen was above, by i.p. injection and the response assessed by conjugating the TNP hapten directly to the SRBC target, thus obviating any potential "carrier" effect. […] In this case, a third experimental parameter has been added to the study, the production of non-specific immunoglobulin (Ig-PFC). This parameter provides information on the general status of the humoral response regardless of antigen specificity. The TNP-Ficoll antigen does elicit a modest Ig-PFC response but little if any IgG specific response. […] In this case there is a very large specific and non-specific augmentation.

In the case of `CC(C)OC(=O)C[C@H](O)C[C@@H](O)/C=C/c1c(C(C)C)nc(-c2ccccc2)n1-c1ccc(F)cc1` (relative stereo) [Compound IIe'], the “% Change of Tg” value in the experiment on canine glioma cells [1] (10 nM, 72 × 3 h) is recorded as 180%. In addition, the Tg with canine glioma cells [1] (10 nM, 72 h, control 18.6) is 25.3 h; in experiment [4] (10 nM, 72 h, control 26.5), 84.9 h. For the same compound, in the experiment on canine glioma cells [1] (in words), the contact inhibition result was “showed evidence of contact inhibition as the cells approached confluency”. The IC50 on HMGCoA reductase [2] was found to be 3 nM; in the experiment on canine glioma cells [5] (24 h) it was 75 nM; in the experiment with canine glioma cells [5] (72 h), 70 nM; with canine glioma cells [5] (96 h) it was 75 nM; with canine glioma cells [7] (24 h) it was 750 nM; in the experiment on canine glioma cells [7] (72 h), 800 nM. Besides, the IC50 with canine glioma cells [7] (96 h) came out at 900 nM; in the experiment on canine glioma cells [8] (24 h, first four lines, read-out: I50% (thymidine incorporation)), 50 nM; with canine glioma cells [8] (48 h, first four lines, read-out: I50% (thymidine incorporation)), 75 nM; in the experiment on canine glioma cells [8] (48 h, second four lines, read-out: I50% (thymidine incorporation)) it was 75 nM; with canine glioma cells [8] (72 h, first four lines, read-out: I50% (thymidine incorporation)) it was 80 nM; with canine glioma cells [8] (96 h, first four lines, read-out: I50% (thymidine incorporation)), 50 nM. Moreover, the IC50 with canine glioma cells [8] (96 h, second four lines, read-out: I50% (thymidine incorporation)) was 50 nM; in the experiment with canine glioma cells [8] (text to Table V, read-out: I50% (thymidine incorporation into DNA)), 50 to 80 nM; with canine glioma cells [8] (24 h, second four lines, read-out: I50% (thymidine incorporation)), 100 nM; in the experiment with canine glioma cells [8] (72 h, second four lines, read-out: I50% (thymidine incorporation)) it was 30 nM. Also, the ED50 at HMGCoA reductase [3] amounted to 0.025 mg/kg. In addition, the “generation time after drug withdrawal” value in experiment [4] (two passages, in words) was “the generation time returned to control levels”. The “Proliferation ((3H) thymidine incorporation into DNA)” value in experiment [6] came out at 0.85.
Take `CC(C)OC(=O)C[C@H](O)C[C@@H](O)/C=C/c1c(C(C)C)nc(-c2ccccc2)n1-c1ccc(F)cc1` [Compound IIc']: in [9] (in words), the “antibody titer versus control without antigen” value is on record as “titers of antibody increased over the control antibody titer significantly”. For the same compound, the “IC-50% Titer (Anti-CG)” value in experiment [9] (treated 2+ months, tumor regressed) is “Baseline Values”. Also, the “Inhibitory Concentration (inhibiting nonspecific IgG production below normal production)” value in [10] (HPBL) was “none found”. Further, in experiment [10] (HPBL), the “Stimulation of IgG Production, Concentration” value is recorded as 100 pM. Further, the “optimal dose in vitro, immune stimulation” value in experiment [10] (HPBL assay) was determined as 100 pM. The “Stimulation of IgG Production, Percent” value in experiment [10] (HPBL, at the stimulating concentration) is on record as 6200%. In addition, the “slope M of Y = MX + B (linear regression of toxicity)” value in the experiment on CG tumor (December 14, 1987) was determined as 0.05; in the experiment with CG tumor (February 9, 1988), 0.35; with CG tumor (February 17, 1988), 0.75; in the experiment on CG tumor (March 31, 1988) it was 0.05. The CML entry in the experiment with CG tumor (additional 2 months of administration, no CG antigen, in words) was “significant increase in CML”. For the same compound, the “CG-specific CML” value in the experiment on CG tumor (after 14 days, I.P., M, W, F, in words) is given as “only baseline levels of CG-specific CML were present”. For the same compound, the “Proliferation ((3H) thymidine incorporation into DNA)” value in experiment [6] was 1.2. Moreover, the “optimal dose in vivo, equivalent concentration with uniform distribution” value in the experiment with canine glioma cells [11] (100 ng/kg) was 250 pM. For the same compound, the “cytostatic activity at other doses” value with canine glioma cells [11] (10 and 100 μg/kg, 1 ng/kg, in words) was “Little or no cytostatic activity”. Also, the “most effective dosage for inhibition of canine glioma” value with canine glioma cells [11] (I.P., M, W, F) amounted to 100 ng/kg.
Turning to `Cc1c(/C=C/C(O)CC(O)CC(=O)O)ccc2c1C(O)CC(C)C2` (centres unmarked) [colletruncoic acid], the biomodulator activity entry in [12] is “has been shown to have biomodulator activity”.
Take Dextran: the “PFC response to TNP-Ficoll” value with TNP-Ficoll is “some stimulatory effect; also recorded: marked cellular proliferation but little differentiative response”.

As a reminder, the ED50 is the dose that gives a 50% effect, or the effect in half of the subjects.
